For series [1], the species on record is Rattus norvegicus. Put plainly: Inhibition of prostate weight in testosterone treated castrated immature Sprague-Dawley rat at 2 mg/day. It is filed as functional. As to conditions: for inhibition: Prostate gland.
Series [2] in a line: Half life in orally dosed Sprague-Dawley rat. The series is classed as ADME, organism-based. The settings on record: in vivo, po.
Series [3] is described as follows: Bioavailability in orally dosed Sprague-Dawley rat. The series is classed as ADME, organism-based. As to conditions: in vivo, po.
In series [4] the target is T1, Androgen receptor (Homo sapiens) (UniProt P10275).
T1 sequence (whole entry): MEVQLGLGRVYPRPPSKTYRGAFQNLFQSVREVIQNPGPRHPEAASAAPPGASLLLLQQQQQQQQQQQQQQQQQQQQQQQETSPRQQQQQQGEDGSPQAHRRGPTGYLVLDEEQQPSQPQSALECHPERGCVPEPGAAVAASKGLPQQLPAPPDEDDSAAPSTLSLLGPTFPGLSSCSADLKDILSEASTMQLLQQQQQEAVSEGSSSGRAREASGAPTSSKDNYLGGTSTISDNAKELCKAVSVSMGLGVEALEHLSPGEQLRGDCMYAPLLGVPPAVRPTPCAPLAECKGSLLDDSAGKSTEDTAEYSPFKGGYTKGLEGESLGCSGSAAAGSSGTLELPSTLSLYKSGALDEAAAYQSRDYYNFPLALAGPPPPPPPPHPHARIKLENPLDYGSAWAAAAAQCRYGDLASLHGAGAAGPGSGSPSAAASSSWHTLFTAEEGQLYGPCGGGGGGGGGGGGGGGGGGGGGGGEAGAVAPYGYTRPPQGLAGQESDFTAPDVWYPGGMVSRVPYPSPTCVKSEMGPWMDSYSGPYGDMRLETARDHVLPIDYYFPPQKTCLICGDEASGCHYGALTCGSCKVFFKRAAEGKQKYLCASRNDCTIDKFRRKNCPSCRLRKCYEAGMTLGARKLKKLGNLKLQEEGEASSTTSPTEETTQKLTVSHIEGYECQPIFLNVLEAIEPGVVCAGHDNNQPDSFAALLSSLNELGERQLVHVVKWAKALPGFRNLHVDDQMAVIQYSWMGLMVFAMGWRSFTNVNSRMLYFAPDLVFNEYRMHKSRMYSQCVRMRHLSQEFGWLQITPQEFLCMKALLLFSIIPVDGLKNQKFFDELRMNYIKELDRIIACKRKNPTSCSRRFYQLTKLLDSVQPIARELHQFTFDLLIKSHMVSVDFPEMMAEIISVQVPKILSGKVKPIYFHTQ
Put plainly: Antagonist activity at androgen receptor expressed in COS cell by whole cell assay. The series is classed as functional, cell-based.

Series [5] addresses T1, Androgen receptor (Homo sapiens). Put plainly: Antagonist activity at androgen receptor expressed in COS cell at 3000 nM by whole cell assay. It is filed as functional, cell-based.
Series [6] is filed under the species Rattus norvegicus. Briefly: Inhibition of prostate weight in testosterone treated castrated immature Sprague-Dawley rat at 0.3 mg/day.
Series [7] is filed under the species Rattus norvegicus. Put plainly: Inhibition of prostate weight in testosterone treated castrated immature Sprague-Dawley rat. The series is classed as functional, Prostate gland.
The species named for series [8] is Rattus norvegicus. Briefly: Inhibition of prostate weight in testosterone treated castrated mature Sprague-Dawley rat. The series is classed as functional. The settings on record: Prostate gland, read-out: ID50 (the source's name).

Results on 53 compounds are retold here after ChEMBL document CHEMBL1138416, “Synthesis and SAR of potent and selective androgen receptor antagonists: 5,6-Dichloro-benzimidazole derivatives” (Bioorg Med Chem Lett, 2007).

Active and inactive are the calls of the source. The rule behind the calls is not given here.

As for `CC(O)(CS(C)(=O)=O)c1nc2cc(Cl)c(Cl)cc2[nH]1` (stereo not drawn), the inhibition (as a rule, the percentage by which the read-out fell short of the control) in the series filed under Rattus norvegicus [1] was “inactive”.

Regarding `CCCC(C)c1nc2cc(Cl)c(Cl)cc2[nH]1` (stereo not drawn), the Inhibition (usually how much of the control response was suppressed) in the series filed under Rattus norvegicus [1] was determined as 32%.

Compound `CC(O)(c1nc2cc(Cl)c(Cl)cc2[nH]1)c1cccs1` (stereo not drawn) came in with an Inhibition in the series filed under Rattus norvegicus [1] of 16%.

On to `CC(O)c1nc2cc(Cl)c(Cl)cc2[nH]1` (stereo not drawn), for which the inhibition result in the series listed under Rattus norvegicus [1] was “inactive”.

With `CCn1c(C(C)(C)O)nc2cc(Cl)c(Cl)cc21`, the Inhibition in the series filed under Rattus norvegicus [1] turned out to be 82%.

For the compound `CC(C)(O)c1nc2cc(Cl)c(Cl)cc2[nH]1`, the half-life (commonly how long it takes for the measured level to halve) in series [2] was 4 h. The bioavailability in series [3] turned out to be 100%. The Inhibition in the series filed under Rattus norvegicus [1] is 77%. Also, the ID50 in series [4] turned out to be 80 nM. In series [5], this compound returned an inhibition of 90%.

Compound `CC(C)c1nc2cc(Cl)c(Cl)cc2[nH]1` returned an Inhibition in the series listed under Rattus norvegicus [1] of 11%.

Compound `CC(O)(CS(=O)(=O)c1ccc(F)cc1)c1nc2cc(Cl)c(Cl)cc2[nH]1` (stereo not drawn) showed an Inhibition in the series filed under Rattus norvegicus [1] of 29%.

`Cn1c(C(C)(O)CSc2ccc(F)cc2)nc2cc(Cl)c(Cl)cc21` (stereo not drawn) displayed an Inhibition in the series filed under Rattus norvegicus [1] of 6%.

In the series filed under Rattus norvegicus [1], `CCCn1c(C(C)(C)O)nc2cc(Cl)c(Cl)cc21` gave an Inhibition of 53%.

As for `CCC(CC)c1nc2cc(Cl)c(Cl)cc2[nH]1`, the Inhibition in the series listed under Rattus norvegicus [1] worked out at 80%.

Take `CCS(=O)(=O)CC(C)(O)c1nc2cc(Cl)c(Cl)cc2n1C` (stereo not drawn): the Inhibition in the series filed under Rattus norvegicus [1] is recorded as 79%.

In turn, `Cc1ccc(S(=O)(=O)CC(C)(O)c2nc3cc(Cl)c(Cl)cc3[nH]2)cc1` (stereo not drawn) registered an Inhibition in the series listed under Rattus norvegicus [1] of 11%.

On to `OC(c1nc2cc(Cl)c(Cl)cc2[nH]1)C(F)(F)F` (stereo in doubt; (+)-1), for which the Inhibition in the series listed under Rattus norvegicus [6] worked out at 81%. In addition, in the series filed under Rattus norvegicus [7], the ID50 was found to be 0.032 mg/day.

In the case of `CSCn1c(C(C)(C)O)nc2cc(Cl)c(Cl)cc21`, the Inhibition in the series filed under Rattus norvegicus [1] is on record as 96%.

Regarding `CCCCn1c(C(C)(C)O)nc2cc(Cl)c(Cl)cc21`, the inhibition entry in the series filed under Rattus norvegicus [1] was “inactive”.

In the case of `CC(O)(CO)c1nc2cc(Cl)c(Cl)cc2[nH]1` (stereo not drawn), the Inhibition in the series listed under Rattus norvegicus [1] was determined as 67%.

The compound `OC(c1nc2cc(Cl)c(Cl)cc2[nH]1)C(F)(F)F` (stereo in doubt; (-)-1) displayed an Inhibition in the series filed under Rattus norvegicus [6] of 80%. In the series filed under Rattus norvegicus [7], the ID50 is 0.12 mg/day.

Consider `CCCS(=O)(=O)CC(C)(O)c1nc2cc(Cl)c(Cl)cc2n1C` (stereo not drawn), for which the Inhibition in the series listed under Rattus norvegicus [1] amounted to 26%.

For the compound `CCCC(C)c1nc2cc(Cl)c(Cl)cc2n1C` (stereo not drawn), in the series filed under Rattus norvegicus [1], the Inhibition is listed as 23%.

For the compound `CCn1c(C(C)(O)CS(=O)(=O)CC)nc2cc(Cl)c(Cl)cc21` (stereo not drawn), the half-life in series [2] was 15 h. Besides, the bioavailability in series [3] was determined as 99%. Besides, in the series filed under Rattus norvegicus [1], the Inhibition was 74%. In series [5], this compound gave an inhibition of 20%.

Regarding `CC(O)(CS(=O)(=O)c1ccc(F)cc1)C(=O)Nc1ccc(C#N)c(C(F)(F)F)c1` (stereo not drawn) [BICALUTAMIDE], the Inhibition in the series listed under Rattus norvegicus [1] is listed as 70%. In addition, the ID50 in the series filed under Rattus norvegicus [7] came out at 0.23 mg/day. Further, the ED50 in the series filed under Rattus norvegicus [8] was 30 mg/kg.

In turn, `CC(C)(O)c1nc2cc(Cl)c(C(F)(F)F)cc2[nH]1` displayed an Inhibition in the series filed under Rattus norvegicus [1] of 42%.

In the series filed under Rattus norvegicus [1], `CC(O)(c1nc2cc(Cl)c(Cl)cc2[nH]1)C(F)(F)F` (stereo not drawn) registered an Inhibition of 74%.

In turn, `CC(C)(O)c1nc2cc(C#N)c(C(F)(F)F)cc2[nH]1` registered an Inhibition in the series listed under Rattus norvegicus [1] of 63%.

On to `CCC(C)c1nc2cc(Cl)c(Cl)cc2n1C` (stereo not drawn), for which, in the series listed under Rattus norvegicus [1], the inhibition entry is “inactive”.

`CCCSCC(C)(O)c1nc2cc(Cl)c(Cl)cc2n1C` (stereo not drawn) came in with an Inhibition in the series filed under Rattus norvegicus [1] of 40%.

In series [2], `Cn1c(C(C)(C)O)nc2cc(Cl)c(Cl)cc21` showed a half-life of 3 h. Further, the bioavailability in series [3] was 100%. In the series listed under Rattus norvegicus [1], this compound showed an Inhibition of 91%.

As for `CCC(C)c1nc2cc(Cl)c(Cl)cc2[nH]1` (stereo not drawn), the Inhibition in the series listed under Rattus norvegicus [1] was 88%.

`COC(c1nc2cc(Cl)c(Cl)cc2n1C)C(F)(F)F` (stereo not drawn) returned an Inhibition in the series filed under Rattus norvegicus [1] of 60%.

Regarding `CCC(CC)c1nc2cc(Cl)c(Cl)cc2n1CC`, the Inhibition in the series filed under Rattus norvegicus [1] was found to be 3%.

In the series listed under Rattus norvegicus [1], `CC(C)(O)c1nc2cc(F)c(Cl)cc2[nH]1` gave an Inhibition of 57%.

In series [2], `OC(c1nc2cc(Cl)c(Cl)cc2[nH]1)C(F)(F)F` (stereo in doubt; 1) showed a half-life of 14.7 h. In series [3], the bioavailability was determined as 132%. Also, in the series listed under Rattus norvegicus [1], the Inhibition was 96%. In the series filed under Rattus norvegicus [7], the ID50 is listed as 0.15 mg/day. Moreover, in the series filed under Rattus norvegicus [8], the ED50 is 30 mg/kg.

As to `CC(C)CS(=O)(=O)CC(C)(O)c1nc2cc(Cl)c(Cl)cc2n1C` (stereo not drawn), the Inhibition in the series filed under Rattus norvegicus [1] stood at 7%.

Consider `FC(F)(F)Cc1nc2cc(Cl)c(Cl)cc2[nH]1`, for which, in series [2], the half-life was 5.3 h. The Inhibition in the series listed under Rattus norvegicus [1] came to 90%. In addition, the inhibition in series [5] stood at 30%. For the same compound, the ID50 in the series listed under Rattus norvegicus [7] is given as 0.097 mg/day. Also, the ED50 in the series listed under Rattus norvegicus [8] was determined as 18 mg/kg.

In the series filed under Rattus norvegicus [1], `CC(C)(O)c1nc2cc(Cl)c(Cl)cc2n1CC#N` came in with an Inhibition of 5%.

In the series filed under Rattus norvegicus [1], `CC(C)CSCC(C)(O)c1nc2cc(Cl)c(Cl)cc2n1C` (stereo not drawn) returned an Inhibition of 9%.

`CCSCC(C)(O)c1nc2cc(Cl)c(Cl)cc2n1CC` (stereo not drawn) had a half-life in series [2] of 1 h. Besides, the bioavailability in series [3] amounted to 15%. The compound further showed an Inhibition in the series filed under Rattus norvegicus [1] of 79%.

In the series filed under Rattus norvegicus [1], `CCn1c(C(C)C)nc2cc(Cl)c(Cl)cc21` came in with an Inhibition of 82%.

In the series listed under Rattus norvegicus [1], `Cn1c(CC(F)(F)F)nc2cc(Cl)c(Cl)cc21` gave an Inhibition of 60%.

Take `CC(O)(CC#N)c1nc2cc(Cl)c(Cl)cc2[nH]1` (stereo not drawn): in the series listed under Rattus norvegicus [1], the Inhibition amounted to 64%.

Consider `Cn1c(C(C)(O)CS(=O)(=O)Cc2ccccc2)nc2cc(Cl)c(Cl)cc21` (stereo not drawn), for which, in the series listed under Rattus norvegicus [1], the Inhibition is on record as 16%.

For `CCc1nc2cc(Cl)c(Cl)cc2[nH]1`, the inhibition entry in the series listed under Rattus norvegicus [1] was “inactive”.

In turn, `Cn1c(C(O)(O)C(F)(F)F)nc2cc(Cl)c(Cl)cc21` returned an Inhibition in the series listed under Rattus norvegicus [1] of 94%. In the series filed under Rattus norvegicus [7], this compound had an ID50 of 0.17 mg/day. Moreover, in the series listed under Rattus norvegicus [8], the ED50 came to 23 mg/kg.

For `CC(C)c1nc2cc(Cl)c(Cl)cc2n1C`, the Inhibition in the series filed under Rattus norvegicus [1] amounted to 93%.

With `CCSCC(C)(O)c1nc2cc(Cl)c(Cl)cc2n1C` (stereo not drawn), the Inhibition in the series filed under Rattus norvegicus [1] came out at 86%.

`CCOCC(C)(O)c1nc2cc(Cl)c(Cl)cc2n1C` (stereo not drawn) gave an Inhibition in the series listed under Rattus norvegicus [1] of 10%.

For the compound `COCn1c(C(C)(C)O)nc2cc(Cl)c(Cl)cc21`, the Inhibition in the series listed under Rattus norvegicus [1] was 90%.

In the series listed under Rattus norvegicus [1], `CC(O)(c1nc2cc(Cl)c(Cl)cc2[nH]1)c1ccco1` (stereo not drawn) gave an Inhibition of 20%.

Turning to `CCC(CC)c1nc2cc(Cl)c(Cl)cc2n1C`, the Inhibition in the series filed under Rattus norvegicus [1] is recorded as 77%.

Compound `Cn1c(C(C)(O)CSCc2ccccc2)nc2cc(Cl)c(Cl)cc21` (stereo not drawn) displayed an Inhibition in the series listed under Rattus norvegicus [1] of 63%.

On to `Cn1c(C(C)(O)CS(=O)(=O)CC(F)(F)F)nc2cc(Cl)c(Cl)cc21` (stereo not drawn), for which the Inhibition in the series listed under Rattus norvegicus [1] was determined as 38%.

Take `Cn1c(C(C)(O)CSCC(F)(F)F)nc2cc(Cl)c(Cl)cc21` (stereo not drawn): in the series listed under Rattus norvegicus [1], the Inhibition was found to be 6%.
